How the values were obtained:
[1] = biological target: Beta-2 adrenergic receptor (Homo sapiens) (UniProt P07550); assay: Intrinsic activity (IA) human Beta-2 adrenergic receptor (at 30 uM, represent by the percentage of the maximal response attained by isoproterenol); format: functional
[2] = biological target: T1, Beta-3 adrenergic receptor (Homo sapiens, UniProt P13945); assay: Intrinsic activity (IA) at human Beta-3 adrenergic receptor (represented by the percentage of the maximal response attained by isoproterenol); format: functional
Target sequence in this assay (P13945 whole entry, looked up): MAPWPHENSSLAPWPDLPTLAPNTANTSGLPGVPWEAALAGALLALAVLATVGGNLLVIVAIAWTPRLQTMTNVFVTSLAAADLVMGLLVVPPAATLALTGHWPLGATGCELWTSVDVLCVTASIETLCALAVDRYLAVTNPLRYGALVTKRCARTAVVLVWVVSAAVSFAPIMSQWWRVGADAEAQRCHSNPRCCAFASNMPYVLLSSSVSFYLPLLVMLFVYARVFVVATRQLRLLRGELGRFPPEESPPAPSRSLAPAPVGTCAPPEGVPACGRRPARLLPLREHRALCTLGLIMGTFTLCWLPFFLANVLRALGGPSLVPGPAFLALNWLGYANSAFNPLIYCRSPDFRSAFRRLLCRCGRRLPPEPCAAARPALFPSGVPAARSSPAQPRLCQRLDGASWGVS

[3] = biological target: Beta-1 adrenergic receptor (Homo sapiens) (UniProt P08588); assay: Intrinsic activity (IA) at human Beta-1 adrenergic receptor (at 30 uM, represented by the percentage of the maximal response attained by isoproterenol); format: functional
Sequence of Beta-1 adrenergic receptor (Homo sapiens) (P08588 whole entry, looked up): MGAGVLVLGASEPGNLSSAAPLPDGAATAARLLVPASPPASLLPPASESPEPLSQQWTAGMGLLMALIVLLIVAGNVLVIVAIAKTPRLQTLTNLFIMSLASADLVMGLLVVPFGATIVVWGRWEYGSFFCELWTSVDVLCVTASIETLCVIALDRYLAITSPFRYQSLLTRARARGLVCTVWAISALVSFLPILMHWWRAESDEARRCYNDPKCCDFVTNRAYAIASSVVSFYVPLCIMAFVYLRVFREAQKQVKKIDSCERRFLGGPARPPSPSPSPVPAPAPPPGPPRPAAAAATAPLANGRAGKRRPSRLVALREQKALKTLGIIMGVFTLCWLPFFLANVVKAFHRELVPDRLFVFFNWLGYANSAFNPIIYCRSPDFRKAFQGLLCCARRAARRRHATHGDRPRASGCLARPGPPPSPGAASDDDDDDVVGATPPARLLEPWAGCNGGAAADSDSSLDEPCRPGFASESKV

[4] = biological target: T1, Beta-3 adrenergic receptor; assay: Agonist activity (EC50) was assessed by measuring cAMP levels in CHO cells expressing cloned human Beta-3 adrenergic receptor; format: functional, cell-based
Target sequence in this assay (P13945 whole entry): as the sequence (P13945 whole entry, looked up) above

[5] = biological target: Beta-1 adrenergic receptor (Homo sapiens) (UniProt P08588); assay: Intrinsic activity (IA) of 30 uM compound at human Beta-1 adrenergic receptor represent the percentage of the maximal response attained by isoproterenol

Sequence of Beta-2 adrenergic receptor (Homo sapiens) (P07550 whole entry, looked up): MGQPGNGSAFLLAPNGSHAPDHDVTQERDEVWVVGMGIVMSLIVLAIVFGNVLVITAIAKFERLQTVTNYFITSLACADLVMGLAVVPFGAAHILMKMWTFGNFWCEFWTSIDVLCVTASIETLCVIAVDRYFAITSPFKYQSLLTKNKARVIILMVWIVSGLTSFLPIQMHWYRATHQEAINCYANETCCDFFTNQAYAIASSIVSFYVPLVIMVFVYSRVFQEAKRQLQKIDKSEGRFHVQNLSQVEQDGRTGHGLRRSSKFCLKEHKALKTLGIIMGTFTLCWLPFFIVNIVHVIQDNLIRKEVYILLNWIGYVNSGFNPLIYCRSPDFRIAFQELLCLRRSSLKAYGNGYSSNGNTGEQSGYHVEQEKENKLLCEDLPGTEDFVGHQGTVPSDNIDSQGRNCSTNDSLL

| Compound | IA [1] | IA [2] | IA [3] | EC50 [4] [nM] | IA [5] |
| --- | --- | --- | --- | --- | --- |
| CN1CCN(S(=O)(=O)Nc2ccc(CC(C)(C)NC[C@H](O)c3cccnc3)cc2)CC1 | 4 | 79 | 7 | 41 |  |
| O=S(=O)(Nc1ccc(CCNC[C@H](O)c2cccnc2)cc1)NC1CCCCC1 | 0 | 71 | 0 | 1460 |  |
| CC(C)(Cc1ccc(NS(=O)(=O)N2CCN(Cc3ccccc3)CC2)cc1)NC[C@H](O)c1cccnc1 | 13 | 105 | 46 | 18 |  |
| C[C@@H]1CN(S(=O)(=O)Nc2ccc(CC(C)(C)NC[C@H](O)c3cccnc3)cc2)C[C@H](C)O1 | 8 | 85 | 10 | 8 |  |
| C[C@@H]1C[C@H](C)CN(S(=O)(=O)Nc2ccc(CCNC[C@H](O)c3cccnc3)cc2)C1 | 17 | 95 | 11 | 24 |  |
| CC1CCN(S(=O)(=O)Nc2ccc(CCNC[C@H](O)c3cccnc3)cc2)CC1 | 8 | 80 | 6 | 36 |  |
| O=S(=O)(Nc1ccc(CCNC[C@H](O)c2cccc(Cl)c2)cc1)NC1CCCCC1 | 7 | 63 |  | 464 | 10 |
| CC1CCN(S(=O)(=O)Nc2ccc(CC(C)(C)NC[C@H](O)c3cccnc3)cc2)CC1 | 6 | 91 | 12 | 10 |  |
| CN(C)S(=O)(=O)Nc1ccc(CC(C)(C)NC[C@H](O)c2cccnc2)cc1 | 7 | 98 | 10 | 38 |  |
| CC1CCN(S(=O)(=O)Nc2ccc(OCCNC[C@H](O)c3cccnc3)cc2)CC1 | 7 | 98 | 5 | 1360 |  |
| COCCNS(=O)(=O)Nc1ccc(CC(C)(C)NC[C@H](O)c2cccnc2)cc1 | 24 | 103 | 28 | 165 |  |
| CN(C)S(=O)(=O)N(C)c1ccc(CCNC[C@H](O)c2cccc(Cl)c2)cc1 | 1 | 105 | 2 | 9900 |  |
| CC(C)(Cc1ccc(NS(=O)(=O)NC2CCCCC2)cc1)NC[C@H](O)c1cccnc1 | 19 | 110 | 17 | 25 |  |
| O=S(=O)(Nc1ccc(CCNC[C@H](O)c2cccnc2)cc1)c1ccc(-c2nc(-c3ccc(C(F)(F)F)cc3)cs2)cc1 | 1 | 92 | 1 |  |  |
| O=S(=O)(Nc1ccc(CCNC[C@H](O)c2cccc(Cl)c2)cc1)N1CCCCC1 | 5 | 84 | 4 | 617 |  |
| CC(C)(Cc1ccc(NS(=O)(=O)N2CCC(c3ccccc3)CC2)cc1)NC[C@H](O)c1cccnc1 | 9 | 106 | 20 | 47 |  |
| CN(C)S(=O)(=O)Nc1ccc(CCNC[C@H](O)c2cccc(Cl)c2)cc1 | 6 | 75 | 5 | 299 |  |
| O=S(=O)(Nc1ccc(CCNC[C@H](O)c2cccnc2)cc1)N1CCCCC1 | 6 | 77 | 7 | 99 |  |
| CC(C)(Cc1ccc(NS(=O)(=O)Nc2ccccc2)cc1)NC[C@H](O)c1cccnc1 | 8 | 107 | 29 | 7 |  |
| CN(C1CCCCC1)S(=O)(=O)Nc1ccc(CCNC[C@H](O)c2cccc(Cl)c2)cc1 | 5 | 62 | 6 | 537 |  |
| C[C@@H]1C[C@H](C)CN(S(=O)(=O)Nc2ccc(CC(C)(C)NC[C@H](O)c3cccnc3)cc2)C1 | 11 | 89 | 7 | 4 |  |
| CN(C)S(=O)(=O)Nc1ccc(CCNC[C@H](O)c2cccnc2)cc1 | 11 | 84 | 6 | 265 |  |
| O=S(=O)(Nc1ccc(CCNC[C@H](O)c2cccnc2)cc1)N1CCC(c2ccccc2)CC1 | 2 | 100 | 2 | 23 |  |
| CN(C1CCCCC1)S(=O)(=O)Nc1ccc(CCNC[C@H](O)c2cccnc2)cc1 | 16 | 67 | 15 | 180 |  |
| CN(C)S(=O)(=O)Nc1ccc(OCCNC[C@H](O)c2cccnc2)cc1 | 4 | 96 | 3 | 943 |  |

From ChEMBL document CHEMBL1146653, “Potent and selective, sulfamide-based human beta 3-adrenergic receptor agonists” (Bioorg Med Chem Lett, 2004)
